Laboratory results reported in PubChem BioAssay AID720713 (Broad Institute, 2013).
Calls of active or inactive are those of the source. The rule behind the calls is not given here.

test system: not listed separately; test: A549 cell cytotoxicity, dose response, plate reader, dry powder, set 2 (AID 720713); conditions: A549 cytotoxicity, plate reader; at 12 µM (top of the series)

SMILES | activity change, negative = cytotoxicity
CN(C(=O)COc1ccccc1C(=O)NCCOc1ccccc1)c1ccccc1 | 2.59% (inactive)

same assay, conditions: A549 cytotoxicity, plate reader; at 26 µM (top of the series)

SMILES | activity change, negative = cytotoxicity
CN(CC(=O)Nc1cccc(S(=O)(=O)N2CCOCC2)c1)CC(=O)Nc1ccc(Cl)c(C(F)(F)F)c1 | 8.78% (inactive)
COc1ccc2c(c1)c(CC(=O)Nc1cc(C)ccc1C)c(C)n2C(=O)c1ccc(Cl)cc1 | -1.36% (inactive)
O=C1CSc2ccc(C(=O)Nc3cccc(S(=O)(=O)Nc4ccc(Br)cc4)c3)cc2N1 | 12% (inactive)
Cc1ccc2cc(CN(CC3CCCO3)C(=O)NC3CCCCC3)c(=O)[nH]c2c1C (configuration not stated) | 106% (inactive)
COc1cc2ncnc(N[C@H](C)c3ccccc3)c2cc1OC | 10.2% (inactive)
CC(C)[C@H](NC(=O)OC(C)(C)C)c1nnc(S(=O)(=O)Cc2c(F)cccc2Cl)o1 | 22.5% (inactive)
Cc1cc2c(cc(C(=O)N3CCC(C(=O)NC4CCCC4)CC3)n2Cc2c(F)cccc2Cl)o1 | -19.5% (inactive)
COc1ccc(NS(=O)(=O)c2ccc(C(=O)N3CCCCCC3)cc2)cc1 | 22% (inactive)
Nc1nonc1C(=O)NCCNCc1cc(Br)ccc1OCc1ccc(F)cc1 | 4.85% (inactive)
Cc1cc(N2CCCC2=O)cc(C)c1S(=O)(=O)NCCOc1ccc(C(C)(C)C)cc1 | 11% (inactive)
COc1ccccc1N1CCN(c2ncc(C(=O)N3CCN(c4cccc(Cl)c4)CC3)c3ccccc23)CC1 | 4.47% (inactive)
Fc1ccc(-n2nnnc2-c2cnc(-c3cccs3)nc2C(F)(F)F)cc1 | 2.19% (inactive)
CC(=O)N1CCN(C(=O)CCc2cc(C(C)(C)C)c(O)c(C(C)(C)C)c2)CC1 | -4.62% (inactive)
O=c1c2ccccc2nc2n1C(CSCc1ccc(Cl)cc1Cl)CS2 (configuration not stated) | 6.09% (inactive)
COc1cc(CN2CCc3ccccc3C2)ccc1O | -37.2% (inactive)
CC(C)(C)NC(=O)CSc1nc2ccc(NC(=O)CSc3nnnn3Cc3ccccc3)cc2s1 | 16.7% (inactive)
O=C(c1nnsc1S(=O)c1ccc(Cl)cc1)N1CCOCC1 (configuration not stated) | -41.1% (inactive)
COc1ccc(Nc2nc(N3CCCCC3)c3ccccc3n2)cc1 | 5.38% (inactive)
CCOC(=O)C1CCN(C(=O)c2ccc(OCC(=O)Nc3cccc(C(F)(F)F)c3)c(OC)c2)CC1 | -17.5% (inactive)
CC(=O)Nc1cccc(NC(=O)CSc2ncc(-c3ccc(Cl)cc3)n2Cc2ccco2)c1 | 11.6% (inactive)
CCOC(=O)c1ccc(NC(=O)Cn2ncc(Cl)c(Cl)c2=O)cc1 | -6.56% (inactive)
CCOC(=O)C1(Cc2ccc(Cl)cc2)CCN(C(C)Cc2ccc(O)c(OC)c2)CC1 (configuration not stated) | 1.75% (inactive)
CN(C)S(=O)(=O)c1cccc(NC(=O)c2cccc(S(=O)(=O)N3CCc4ccccc43)c2)c1 | -0.758% (inactive)
CCCc1nnc(NC(=O)c2nc(S(=O)(=O)Cc3ccc(C)cc3)ncc2Cl)s1 | 8.63% (inactive)

test system: A549 cytotoxicity, plate reader; test: as above; conditions: not given

SMILES | AC50
CN(C)c1nc(-c2ccccn2)nnc1-c1ccccc1 | 25.6 µM
COc1ccc(NC(=O)c2nc(S(=O)(=O)Cc3cccc(C)c3)ncc2Cl)c(OC)c1 | > 52 µM (inactive)
